Laboratory results reported in patent publication US7696233B2, “Method for controlling particular insect pests by applying anthranilamide compounds” (E. I. du Pont de Nemours and Company, priority 2001, dated 2010).
Read-outs that look alike come from different tables or passages of the source.

Columns and labels:
[1] = system: tobacco budworm (Heliothis virescens); assay: Test I: soil systemic control of tobacco budworm, cotton; type: in vivo; details: 10 ppm, 10 mL to pots weekly for four weeks
Protocol: For evaluating soil systemic control of tobacco budworm (Heliothis virescens), cotton plants were grown in sassafras soil in 15-cm pots in aluminum trays. When the plants reached square stage (bud formation on the plant) the plants were treated with the test compounds.
Test compounds were formulated in 0.25 mL of acetone and then diluted with water to provide solutions of 10 ppm. Ten mL of the treatment solutions was added to the pots weekly for four weeks, with four replicates of each treatment rate. One day after the second, third and fourth treatments, 35-50 first instar Heliothis virescens larvae were brushed on each plant with paintbrushes and placed on the terminal area, squares, and bolls. Five days after the last infestation with larvae the plants were rated for damage.

[2] = system: Heliothis virescens (tobacco budworm); type: in vivo; details: 10 mL of 300 ppm, 0 equals no feeding
Protocol: Seventy-eight cotton plants were grown in the greenhouse with natural lighting in Sassafras soil in six inch pots. When six true leaves were on the plant (approximately 36 cm tall) the soil was drenched with a solution of Compound 497, 500, 530, 531 or 543. Each of the 5 compounds was dissolved in 2 mL of acetone, and distilled water was added to make 300 ppm solutions of each of the compounds. The pots were divided into six groups (13 plants/treatment), and 10 mL of each solution was applied over the soil surface of each group with one group left untreated. The plants were arranged in the greenhouse in a randomized block design. Each treatment was divided into three groups for sampling at 24, 48, and 96 hours.
Leaves were taken from the base and terminal of the plants. The leaves from the third node and the terminal leaves greater than 15 cm^2 were sampled per plant. One clipped leaf from each plant was cut into four pieces and each piece was placed into an well with one second-instar larvae of Heliothis virescens (tobacco budworm). Larval mortality (% M) was recorded 96 hours after sampling. The percentage of leaf feeding (% FF) was also recorded. Consumption of the leaf in the well was reported as 0-100% (0 equals no feeding).

[3] = system: Colorado potato beetle (Leptinotarsa decemlineata); assay: Test L: soil systemic control of Colorado potato beetle, tomato; type: in vivo; details: 5 ppm, 5 mL to soil; leaf excised after 4 days; mortality after four days
Protocol: For evaluating soil systemic control of Colorado potato beetle (Leptinotarsa decemlineata), transplanted tomato plants were grown in 6-cm pots for 5 days until they were at the two true leaf stage.
Test compounds were dissolved in 0.25 mL of acetone and diluted with water provide solutions of 5 ppm. Five mL of the appropriate test solution was applied by pipette to the surface of the soil in each pot, followed by 5 mL of water, with eight plants for each compound/rate. The pots were covered and held at 25° C. with 16 hours of light per day. The plants were watered the next day and each day following as needed. After 4 days, one leaf from each plant was excised and placed into a well of a test tray as described in Test H. One 5-day old Colorado potato beetle (Leptinotarsa decemlineata) was placed in each well, the tray was covered and then the test units were held at 25° C. with 16 hours of light per day. Mortality was observed after four days.

[4] = system: thrips (Frankliniella sp.); assay: Test N: control of thrips, sprayed cotton or soybean plants; type: in vivo; details: sprayed at 10 ppm; four days after application
Protocol: For evaluating control of thrips (Frankliniella sp.), samples of the test compounds were dissolved in 1 mL of acetone. This solution was then diluted to 100 mL total volume using an aqueous 500 ppm solution of Ortho X-77™ surfactant. Serial dilutions were made to obtain 50 mL of 10 ppm concentration.
The diluted solutions of the test compounds were sprayed to run-off on three-week-old cotton or soybean plants infested with thrips. The plants were placed on a rotating turntable sprayer (10 rpm). Test solutions were applied using a flat fan air-assisted nozzle (Spraying Systems 122440) at 10 psi (69 kPa). Sprayed and dried plants were incased in a plastic cylinder. At four days after application the total number of dead thrips was recorded.

[5] = system: southern fire ants (Solenopsis xyloni); assay: Test R: fire ant bait test; type: in vivo; details: fifty ants per cage
Description: For evaluating control of fire ant (Solenopsis xyloni), Compound 531 was mixed with water and then mixed into a slurry with equal amounts (by weight) of Niban granular bait with no active ingredient (supplied by Nisus Corp.). The baits were uniformly sprinkled onto the sand substrate in each test cage. Fifty field-collected southern fire ants (Solenopsis xyloni) were then placed into each cage and provided water via a saturated cotton ball. The cages were held indoors with indirect sunlight and temperatures ranging from 22 to 31° C. Four test replicates were set up per rate. Evaluations were conducted at 1, 3, 7, 10, and 14 days after treatment (DAT) by counting and removing the killed ants found in each cage.

[6] = system: German cockroaches (Blatella germanica); assay: Test Q: German cockroach bait test; type: in vivo; details: ten cockroaches per cage
Protocol: For evaluating german cockroach (Blatella germanica), Compound 531 was mixed with water, and then blended into a slurry with equal amounts (by weight) of peanut butter. Approximately 1 gram of bait was placed into each test cage. Ten German cockroaches (Blatella germanica) were then placed into each cage, and provided water via a saturated cotton ball. The cages were held indoors, with indirect sunlight, and temperatures ranging from 22 to 31° C. Four test replicates were set up per rate. Evaluations were conducted 1, 2, 3, 5, and 7 days after treatment (DAT) by counting and removing the killed roaches found in each cage.

[7] = base leaf sampled 24 h after drench
[8] = base leaf sampled 48 h after drench
[9] = base leaf sampled 96 h after drench
[10] = terminal leaf sampled 24 h after drench
[11] = terminal leaf sampled 48 h after drench
[12] = terminal leaf sampled 96 h after drench

Cc1cc(Br)cc(C(=O)NC(C)C)c1NC(=O)c1cc(Br)nn1-c1ncccc1Cl [Compound 520]
protection of squares and bolls [1]: excellent protection of squares and boils including no or minimal sepal damage

CNC(=O)c1cc(Cl)cc(C)c1NC(=O)c1cc(C(F)(F)F)nn1-c1ncccc1Cl [Compound 500]
% FF (percentage of leaf feeding) [2, 7]: 80% | % FF (percentage of leaf feeding) [2, 8]: 80% | % FF (percentage of leaf feeding) [2, 9]: 30% | % FF (percentage of leaf feeding) [2, 10]: 60% | % FF (percentage of leaf feeding) [2, 11]: 60% | % FF (percentage of leaf feeding) [2, 12]: 30%

CCn1nc(C(F)(F)F)cc1NC(=O)c1c(C)cccc1C(=O)NC(C)C
melting point: 200 to 204 °C

CNC(=O)c1cc(Cl)cc(C)c1NC(=O)c1cc(Cl)nn1-c1ncccc1Cl
melting point: 205 to 207 °C

Cc1cc(Cl)cc(C(=O)NC(C)C)c1NC(=O)c1cc(Br)nn1-c1ncccc1Cl [Compound 530]
% FF (percentage of leaf feeding) [2, 7]: 80% | % FF (percentage of leaf feeding) [2, 8]: 50% | % FF (percentage of leaf feeding) [2, 9]: 5% | % FF (percentage of leaf feeding) [2, 10]: 50% | % FF (percentage of leaf feeding) [2, 11]: 20% | % FF (percentage of leaf feeding) [2, 12]: 5%

Cc1cc(Cl)cc(C(=O)NC(C)C)c1NC(=O)c1cc(Cl)nn1-c1ncccc1Cl [Compound 543]
% FF (percentage of leaf feeding) [2, 7]: 30% | % FF (percentage of leaf feeding) [2, 8]: 30% | % FF (percentage of leaf feeding) [2, 9]: 5% | % FF (percentage of leaf feeding) [2, 10]: 20% | % FF (percentage of leaf feeding) [2, 11]: 20% | % FF (percentage of leaf feeding) [2, 12]: 5%

Cc1cccc(C(=O)NC(C)C)c1NC(=O)c1cc(C(F)(F)F)nn1-c1ncccc1Cl [Compound 214]
mortality and feeding inhibition [3]: excellent levels of mortality and feeding inhibition | protection of squares and bolls [1]: excellent protection of squares and boils including no or minimal sepal damage

Cc1cc(Cl)cc(C(=O)NC(C)C)c1NC(=O)c1cc(C(F)(F)F)nn1-c1ncccc1Cl [Compound 497]
% FF (percentage of leaf feeding) [2, 7]: 80% | % FF (percentage of leaf feeding) [2, 8]: 100% | % FF (percentage of leaf feeding) [2, 9]: 20% | % FF (percentage of leaf feeding) [2, 10]: 50% | % FF (percentage of leaf feeding) [2, 11]: 50% | % FF (percentage of leaf feeding) [2, 12]: 10%

Cc1cccc(C(=O)NC(C)C)c1NC(=O)c1cc(C(F)(F)F)nn1-c1ncccc1C(F)(F)F
melting point: 233 to 235 °C

CNC(=O)c1cc(Br)cc(C)c1NC(=O)c1cc(C(F)(F)F)nn1-c1ncccc1Cl [Compound 542]
mortality [4]: at least 90%

CNC(=O)c1cc(Cl)cc(C)c1NC(=O)c1cc(OCC(F)(F)F)nn1-c1ncccc1Cl
melting point: 215 to 217 °C

CNC(=O)c1cc(Cl)cc(C)c1NC(=O)c1cc(Br)nn1-c1ncccc1Cl [Compound 531]
Average of Killed Fire Ants ([5]; granular bait 400 ppm, 1 DAT): 0.5 | Average of Killed Fire Ants ([5]; granular bait 400 ppm, 3 DAT): 1.3 | Average of Killed Fire Ants ([5]; granular bait 400 ppm, 7 DAT): 40.5 | Average of Killed Fire Ants ([5]; granular bait 400 ppm, 10 DAT): 50 | Average of Killed Fire Ants ([5]; granular bait 400 ppm, 14 DAT): 50 | Average of Killed Fire Ants ([5]; granular bait 2,000 ppm, 1 DAT): 1 | Average of Killed Fire Ants ([5]; granular bait 2,000 ppm, 3 DAT): 2 | Average of Killed Fire Ants ([5]; granular bait 2,000 ppm, 7 DAT): 43 | Average of Killed Fire Ants ([5]; granular bait 2,000 ppm, 10 DAT): 49.8 | Average of Killed Fire Ants ([5]; granular bait 2,000 ppm, 14 DAT): 50 | Average of Killed Fire Ants ([5]; granular bait 10,000 ppm, 1 DAT): 0 | Average of Killed Fire Ants ([5]; granular bait 10,000 ppm, 3 DAT): 2.3 | Average of Killed Fire Ants ([5]; granular bait 10,000 ppm, 7 DAT): 42.8 | Average of Killed Fire Ants ([5]; granular bait 10,000 ppm, 10 DAT): 50 | Average of Killed Fire Ants ([5]; granular bait 10,000 ppm, 14 DAT): 50 | Average of Killed Cockroaches ([6]; peanut butter bait 400 ppm, 1 DAT): 3.8 | Average of Killed Cockroaches ([6]; peanut butter bait 400 ppm, 2 DAT): 5.8 | Average of Killed Cockroaches ([6]; peanut butter bait 400 ppm, 3 DAT): 6.3 | Average of Killed Cockroaches ([6]; peanut butter bait 400 ppm, 5 DAT): 7 | Average of Killed Cockroaches ([6]; peanut butter bait 400 ppm, 7 DAT): 7 | Average of Killed Cockroaches ([6]; peanut butter bait 2000 ppm, 1 DAT): 6.3 | Average of Killed Cockroaches ([6]; peanut butter bait 2000 ppm, 2 DAT): 8 | Average of Killed Cockroaches ([6]; peanut butter bait 2000 ppm, 3 DAT): 8.8 | Average of Killed Cockroaches ([6]; peanut butter bait 2000 ppm, 5 DAT): 9 | Average of Killed Cockroaches ([6]; peanut butter bait 2000 ppm, 7 DAT): 9 | Average of Killed Cockroaches ([6]; peanut butter bait 10000 ppm, 1 DAT): 9.5 | Average of Killed Cockroaches ([6]; peanut butter bait 10000 ppm, 2 DAT): 9.5 | Average of Killed Cockroaches ([6]; peanut butter bait 10000 ppm, 3 DAT): 9.5 | Average of Killed Cockroaches ([6]; peanut butter bait 10000 ppm, 5 DAT): 9.5 | Average of Killed Cockroaches ([6]; peanut butter bait 10000 ppm, 7 DAT): 9.5 | % FF (percentage of leaf feeding) [2, 7]: 60% | % FF (percentage of leaf feeding) [2, 8]: 80% | % FF (percentage of leaf feeding) [2, 9]: 10% | % FF (percentage of leaf feeding) [2, 10]: 40% | % FF (percentage of leaf feeding) [2, 11]: 40% | % FF (percentage of leaf feeding) [2, 12]: 10%

Cc1cccc(C(=O)NC(C)C)c1NC(=O)c1cc(Br)nn1-c1ncccc1Cl [Compound 283]
protection of squares and bolls [1]: excellent protection of squares and boils including no or minimal sepal damage
